Measured values taken from patent publication US10155764B2, “Therapeutic compounds and uses thereof” (GENENTECH, INC., priority 2014, dated 2018).

These compounds were tested against PCAF719-832 bromodomain (Homo sapiens (Human), UniProt Q92831) (assay: PCAF AlphaLisa binding assay). Details: PCAF bromodomain 225 nM, biotinylated small molecule ligand 6 nM.
PCAF719-832 bromodomain, sequence (Q92831 719-832): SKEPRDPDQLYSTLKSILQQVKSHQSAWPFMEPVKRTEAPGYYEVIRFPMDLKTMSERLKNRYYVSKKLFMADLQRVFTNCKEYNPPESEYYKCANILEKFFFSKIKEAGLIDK

Row | Structure (SMILES) | IC50 [µM]
1 | CN(C)C(CNc1nn(C)c(=O)c2[nH]ccc12)c1ccccc1 (racemic) [Example 10, 4-((2-(dimethylamino)-2-phenylethyl)amino)-6-methyl-1H-pyrrolo[2,3-d]pyridazin-7(6H)-one] | 0.24
2 | CC(CN(C)C)Nc1nn(C)c(=O)c2ccncc12 (racemic) [Example 12, 4-((1-(dimethylamino)propan-2-yl)amino)-2-methylpyrido[3,4-d]pyridazin-1(2H)-one] | 0.22
3 | CC(CN(C)C)Nc1nn(C)c(=O)c2cnccc12 (racemic) [Example 13, 1-((1-(dimethylamino)propan-2-yl)amino)-3-methylpyrido[3,4-d]pyridazin-4(3H)-one] | 0.15
4 | CN(C)C(CNc1nn(C)c(=O)c2ccccc12)c1ccc(F)cc1 (racemic) [Example 20, 4-((2-(dimethylamino)-2-(4-fluorophenyl)ethyl)amino)-2-methylphthalazin-1(2H)-one] | 0.11
5 | COc1ccc(C(CNc2nn(C)c(=O)c3ccccc23)N(C)C)cc1 (racemic) [Example 21, 4-((2-(dimethylamino)-2-(4-methoxyphenyl)ethyl)amino)-2-methylphthalazin-1(2H)-one] | 0.064
6 | CN(C)C(CNc1nn(C)c(=O)c2ccccc12)c1ccccc1 (racemic) [Example 22, 4-((2-(dimethylamino)-2-phenylethyl)amino)-2-methylphthalazin-1(2H)-one] | 0.14
7 | CN(C)C(CNc1nn(C)c(=O)c2ccccc12)c1ccccc1Cl (racemic) [Example 25, 4-((2-(2-chlorophenyl)-2-(dimethylamino)ethyl)amino)-2-methylphthalazin-1(2H)-one] | 0.11
8 | CN(C)C(CNc1nn(C)c(=O)c2ccccc12)c1ccccc1F (racemic) [Example 26, 4-((2-(dimethylamino)-2-(2-fluorophenyl)ethyl)amino)-2-methylphthalazin-1(2H)-one] | 0.11
9 | CN(C)C(CNc1nn(C)c(=O)c2ccccc12)c1ccc(Cl)cc1 (racemic) [Example 27, 4-((2-(4-chlorophenyl)-2-(dimethylamino)ethyl)amino)-2-methylphthalazin-1(2H)-one] | 0.12
10 | CC(CN(C)C)Nc1nn(C)c(=O)c2ccccc12 (racemic) [Example 28, 4-((1-(dimethylamino)propan-2-yl)amino)-2-methylphthalazin-1(2H)-one] | 0.066
11 | CN1CCCC1CNc1nn(C)c(=O)c2ccccc12 (racemic) [Example 30, 2-methyl-4-(((1-methylpyrrolidin-2-yl)methyl)amino)phthalazin-1(2H)-one] | 1.7
12 | C/C=C/Cn1nc(NC(C)CN(C)C)c2ccccc2c1=O (racemic) [Example 31, (E)-2-(but-2-en-1-yl)-4-((1-(dimethylamino)propan-2-yl)amino)phthalazin-1(2H)-one] | 8.1
13 | Cn1nc(N[C@@H]2CCCC[C@H]2N)c2ccccc2c1=O (racemic) [Example 35, 4-(((1R,2R)-2-aminocyclohexyl)amino)-2-methylphthalazin-1(2H)-one] | 12
14 | CN(C)C(CNc1nn(C)c(=O)c2c1CCCC2)c1ccccc1 (racemic) [Example 36, 4-((2-(dimethylamino)-2-phenylethyl)amino)-2-methyl-5,6,7,8-tetrahydrophthalazin-1(2H)-one] | 0.82
15 | CN(C)C(CNc1nn(C)c(=O)c2c1CCC2)c1ccccc1 (racemic) [Example 37, 4-((2-(dimethylamino)-2-phenylethyl)amino)-2-methyl-2,5,6,7-tetrahydro-1H-cyclopenta[d]pyridazin-1-one] | 0.13
16 | CN(C)C(CNc1nn(C)c(=O)c2ccccc12)C1CCCCC1 (racemic) [Example 38, 4-((2-cyclohexyl-2-(dimethylamino)ethyl)amino)-2-methylphthalazin-1(2H)-one] | 0.7
17 | CCC(CNc1nn(C)c(=O)c2ccccc12)N(C)C (racemic) [Example 39, 4-((2-(dimethylamino)butyl)amino)-2-methylphthalazin-1(2H)-one] | 0.18
18 | CN1CCCC(Nc2nn(C)c(=O)c3ccccc23)C1 (racemic) [Example 43, 2-methyl-4-((1-methylpiperidin-3-yl)amino)phthalazin-1(2H)-one] | 0.79
19 | CN1CCC(Nc2nn(C)c(=O)c3ccccc23)C1 (racemic) [Example 44, 2-methyl-4-((1-methylpyrrolidin-3-yl)amino)phthalazin-1(2H)-one] | 0.26
20 | CC(CN(C)C)Nc1nn(C)c(=O)c2c1CCN(c1ccc(Cl)cc1)C2 (racemic) [Example 89, 6-(4-chlorophenyl)-1-((1-(dimethylamino)propan-2-yl)amino)-3-methyl-5,6,7,8-tetrahydropyrido[3,4-d]pyridazin-4(3H)-one] | 1.2
21 | CC(CN(C)C)Nc1nn(C)c(=O)c2c1CN(c1ccc(Cl)cc1)CC2 (racemic) [Example 90, 6-(4-chlorophenyl)-4-((1-(dimethylamino)propan-2-yl)amino)-2-methyl-5,6,7,8-tetrahydropyrido[3,4-d]pyridazin-1(2H)-one] | 0.82
22 | C[C@@H](CNc1nn(C)c(=O)c2cccnc12)N(C)C (single isomer, unassigned) [Example 7A] | 0.86
23 | C[C@H](CNc1nn(C)c(=O)c2cccnc12)N(C)C (single isomer, unassigned) [Example 7B] | 0.072
24 | C[C@@H](CN(C)C)Nc1nn(C)c(=O)c2cccnc12 (single isomer, unassigned) [Example 8A] | 0.042
25 | C[C@H](CN(C)C)Nc1nn(C)c(=O)c2cccnc12 (single isomer, unassigned) [Example 8B] | > 5

Results, then the compound that gave them:

Row | IC50 [µM] | Structure (SMILES)
26 | 0.18 | CN(C)[C@@H]1CCCC[C@H]1Nc1nn(C)c(=O)c2cccnc12 (single isomer, unassigned) [Example 11A]
27 | > 5 | CN(C)[C@H]1CCCC[C@@H]1Nc1nn(C)c(=O)c2cccnc12 (single isomer, unassigned) [Example 11B]
28 | > 5 | Cn1nc(N[C@@H]2CCCC[C@@H]2N)c2ncccc2c1=O (single isomer, unassigned) [Example 14A]
29 | 1.5 | Cn1nc(N[C@H]2CCCC[C@H]2N)c2ncccc2c1=O (single isomer, unassigned) [Example 14B]
30 | 0.078 | CN(C)[C@H]1CCCC[C@H]1Nc1nn(C)c(=O)c2cccnc12 (single isomer, unassigned) [Example 15A]
31 | 1.5 | CN(C)[C@@H]1CCCC[C@@H]1Nc1nn(C)c(=O)c2cccnc12 (single isomer, unassigned) [Example 15B]
32 | > 5 | CCn1nc(N[C@H](C)CN(C)C)c2ccccc2c1=O (single isomer, unassigned) [Example 17A]
33 | 0.28 | CCn1nc(N[C@@H](C)CN(C)C)c2ccccc2c1=O (single isomer, unassigned) [Example 17B]
34 | 0.047 | CN(C)[C@H](CNc1nn(C)c(=O)c2ccccc12)c1ccccc1 (single isomer, unassigned) [Example 22A]
35 | 0.55 | CN(C)[C@@H](CNc1nn(C)c(=O)c2ccccc12)c1ccccc1 (single isomer, unassigned) [Example 22B]
36 | 0.55 | CC[C@@H](CNc1nn(C)c(=O)c2ccccc12)N(C)C (single isomer, unassigned) [Example 39A]
37 | 0.089 | CC[C@H](CNc1nn(C)c(=O)c2ccccc12)N(C)C (single isomer, unassigned) [Example 39B]
